Measurements as given in patent US10793601B2, “Therapeutic spalt-like transcription factor 4 (SALL4) peptide” (National University of Singapore, priority 2016, dated 2020).
Values joined by “and” are separate entries in the source; they are usually repeats but may differ in a detail not shown here. Identical values can stand only once. One block for each compound: values may come before it. Ends that are not written are not given here.

Key:
[1] = tested on: SNU398 cells; test: Cell viability assay in SNU398 cells; format: cell-based; conditions: for effect on cell number: SNU398, Pep-1 carrier added; for EC50: 72 h
Description: (§1) FIGS. 3A-3E. Key residues involved in SALL4 (1-12)-RBBp4 binding. […] The difference in the binding free energy (ΔΔGbind) of the alanine mutants (ΔGmutant, Ala7 was mutated to glycine) and wild type (ΔGwild type) was calculated (ΔΔGbind=ΔGmutant−ΔGwild type). ΔΔGbind was tabulated (left) and plotted in a bar chart (right). […] Mutated residues are highlighted in red. The IC50 of each peptide, including WT, was determined by Fluorescence Polarization (FP). Different concentrations of each peptide were titrated into a mixture of 0.04 μM RBBp4 and 0.01 μM of C-labelled FITC-SALL4 WT peptide. Polarization was measured in mP. […] Pep-1 carrier was added to the peptide to facilitate cellular penetration of the peptides.
FIGS. 5A-5B. Development of a potent therapeutic peptide FFW.
SNU398 was grown in RPMI supplemented with 10% fetal bovine serum (FBS) at 37° C. in a humidified atmosphere of 5% CO2. 3000 cells were seeded in each well of a 96 well plate with 100 μL of medium. Before peptide treatment, cells were washed twice with PBS and treated with different concentrations of peptide in OPTIMEM (LifeTech). Media was added after 4 hrs of incubation at 37° C., and cells incubated for another 68 hrs. Tetrazolium (CellTiter96 AQueous One Solution Cell Proliferation Assay, Promega) was added after 72 hrs incubation with the peptides, and the plate was read at a plate reader at 490 nm after 1 hr of incubation in the dark at 37° C.

[2] = tested on: PTEN; test: PTEN transcript level by quantitative real-time PCR in SNU398 cells; format: cell-based; conditions: Q-PCR
[3] = tested on: SNU398 tumor xenografts; test: SNU398 xenograft in NSG mice; format: in vivo, NOD/SCID/gamma mice; conditions: for effect on tumor growth: SNU398 xenograft, tumor volume against time; for tumor weight: mean, tumors resected on day 20, five i.p. injections
Description: FIGS. 7A-7E. […] FIG. 7A: 7.2×10^5 SNU398 cells were inoculated subcutaneously into the right flank of NOD/SCID/gamma mice (NSG mice). Tumors were allowed to grow for one week before peptide treatments were administered every alternate day for a total of five injections. FIG. 7B: Tumor growth was documented by plotting tumor volume against time. […] FIG. 7C: Relative size of tumors resected on day 20. FIG. 7D: tumor weight was determined (n=5). […] FIG. 7E: Total RNA was isolated from the resected tumors and expression of PTEN was measured using real-time PCR.
FIGS. 9A-9E. […] FIG. 9A: PEN-FFW treated SNU398 tumor xenografts were compared to that of Sorafenib treated xenografts. FIG. 9B: PEN-FFW treated PLC8024 tumor xenografts were compared to that of Sorafenib treated xenografts. Mice body weight was measured to access toxicity of various peptides. FIG. 9C: Body weight of mice at day 17. FIG. 9D: Differences of body weight compared to day 0 (As indicated by the arrow in far left of FIG. 7A). FIG. 9E: Body weight of mice at day 19th in the experiment shown in FIG. 9A comparing effect of Sorafenib and PEN-FFW. Data represent mean±s.d. (n=5).
All mice were treated in accordance with Responsible Care and Use of Laboratory animals. In the SNU398 in vivo studies, 6-8-week-old female C.B-17 severe combined immunodeficient (SCID) mice (NSG) were inoculated s.c. into the flank with 7.2×10^5 cells in 2:1 PBS/Matrigel (BD Biosciences). The tumours were then allowed to develop to the size of 50-70 mm3 before intraperitoneal injections of the different peptides were given at two to three-day intervals for a total of 5 injections. Mice were randomly grouped in sets of six and treated with PEN (penetratin control), PEN-MUT (mutant control), PEN-WT (wild type control) and PEN-FFW (peptide 47). Tumor volumes were measured every 5 days and tumor weight were measured at the end point. For PEN control, 22.5 mg/kg were given; for PEN-MUT, PEN-WT and PEN-FFW, 35.6 mg/kg, 37 mg/kg and 36 mg/kg were given respectively to the mice according to their body weight Tumor measurements were taken twice weekly using Vernier calipers. Tumor volume was estimated using the following formula: V=0.5×width×width×length. When tumors approached ˜50 mm3, mice were randomized into groups of 5 animals each and received peptides treatment three times weekly by i.p. injection. All statistical analysis was done using a one-way ANOVA and Student's T-test.

[4] = molecular target: T1, RBBp4 (Homo sapiens, UniProt Q09028); test: Fluorescence polarization (FP) competition with FITC-labelled SALL4 WT peptide; format: binding; conditions: for IC50: displacement of FITC-SALL4 WT peptide from RBBp4
T1 construct: purchased SinoBiological
Description: as §1
Peptides were titrated into a master mix of 0.045 μM RBBp4 and […] C-terminal FITC-labelled WT peptide (synthesized by Thermo Scientific). Reactions were incubated at room temperature before the plate was read with an Envision instrument (Perkin Elmer). IC50 values of peptides were determined using Prism (GraphPad).

[5] = Plasma stability by LC-MS/MS
Description: PEN-FFW was incubated with human plasma (pH7.4) at 37° C. over a 24 hour period (5 timepoints). Incubations were performed at a concentration of 1 μM (final DMSO concentration 2.5%). Reactions were terminated at 0, 5, 10, 15, 30 min, or 0, 1, 2, 4 and 24 hour, by addition of 2 volumes of methanol containing 1% Formic acid. The samples were centrifuged (2500 rpm, 45 min, 4° C.) and the supernatants diluted with 2 volumes of 0.2% Formic acid (aq) (containing Metoprolol (internal standard)). […] The percentage of parent peptide remaining at each time point relative to the 0 min sample was calculated from LC-MS/MS peak area ratios (compound peak area/internal standard peak area).

[6] = tested on: PLC8024 tumor xenografts; test: PLC8024 xenograft (Sorafenib-resistant HCC); format: in vivo, mice
Description: FIGS. 9A-9E. Clinical significance of PEN-FFW compared to Sorafenib. FIG. 9A: PEN-FFW treated SNU398 tumor xenografts were compared to that of Sorafenib treated xenografts. FIG. 9B: PEN-FFW treated PLC8024 tumor xenografts were compared to that of Sorafenib treated xenografts. Mice body weight was measured to access toxicity of various peptides. FIG. 9C: Body weight of mice at day 17. FIG. 9D: Differences of body weight compared to day 0 (As indicated by the arrow in far left of FIG. 7A). FIG. 9E: Body weight of mice at day 19th in the experiment shown in FIG. 9A comparing effect of Sorafenib and PEN-FFW. Data represent mean±s.d. (n=5).
Clinical significance of PEN-FFW was studied in vivo by benchmarking against current therapy using Sorafenib. PEN-FFW treated SNU398 tumor xenografts were compared to that of Sorafenib treated xenografts (FIG. 9A). […] Potential therapeutic effect of PEN-FFW in HCC patients that are refractory to Sorafenib treatment was studied also studied in vivo. using a HCC cell line, PLC8024 which is SALL4 positive, CD133+ and is both chemo- and radio-resistant (Li et al., BMC Cancer 2016, 16, 15; Ma et al., Oncogene 2008, 27: 1749-1758), for the xenograft study.

[7] = tested on: SNU398; test: RNA-seq transcriptome analysis of treated SNU398; format: cell-based; conditions: for log2 fd versus Contr (PEN + Mut), ADORA2A-AS1: gene ADORA2A-AS1, SNU398, 8 hrs; for log2 fd versus Contr (PEN + Mut), AVPR2: gene AVPR2, SNU398, 8 hrs; for log2 fd versus Contr (PEN + Mut), CSAD: gene CSAD; for log2 fd versus Contr (PEN + Mut), CSAD / log2 fd versus Contr (PEN + Mut), SSPO: SNU398, 8 hrs; for log2 fd versus Contr (PEN + Mut), DNASE1L2: gene DNASE1L2, SNU398, 8 hrs; for log2 fd versus Contr (PEN + Mut), LOC619207: gene LOC619207, SNU398, 8 hrs; for log2 fd versus Contr (PEN + Mut), NEIL1: gene NEIL1, SNU398, 8 hrs; for log2 fd versus Contr (PEN + Mut), PRKXP1: gene PRKXP1, SNU398, 8 hrs; for log2 fd versus Contr (PEN + Mut), SSPO: gene SSPO
Description: SNU398 were treated PEN, PEN-MUT, PEN-WT & PEN-FFW for 8 hrs and paired-end RNA-seq was performed for the treated samples. RNA-seq reads of each sample were mapped to hg19 using the STAR aligner. Normalization between the samples was based on the proportionality of the numbers of the mapped reads. The expression fold change of a transcript was obtained using linear regression of the reads between the two samples cross all exons. Differential expression between two samples was selected by using the fold change cut off of 2. Hierarchical clustering was performed based on average linkage to generate the clustering tree as well as heat maps. For identification of enriched gene sets or pathways, Gene Set Enrichment Analysis (GSEA) was performed based on the normalized data and using the GSEA tool (broad.mit.edu/gsea/) with msigdb.v5.0.

[8] = molecular target: T1, RBBp4; test: Surface plasmon resonance (SPR), RBBp4 immobilised on CM5 chip; format: binding
Description: (§2) FIGS. 1A-1B. Binding affinity of WT SALL4 (1-12 aa) to RBBp4.
SPR studies were performed using a Biacore T200 biosensor (GE Healthsciences). ˜12,000 resonance units (RU) of RBBp4 were immobilised by amine coupling to the carboxymethylated dextran matrix of a Series S CM5 chip (Biacore, GE Healthcare). Multi cycle kinetics analysis was performed at 25° C. through seven injections of SALL4 peptide (0.5 μM-8 μM). The association time and flow rate were set at 60 s and 30 μl/min respectively. The sensograms obtained were of good quality and kinetic rate constants were determined by curve fitting.

[9] = molecular target: T1, RBBp4; test: Isothermal titration calorimetry (ITC) of SALL4 peptide against RBBp4; conditions: 25° C., 1:1 binding model
Description: as §2
ITC was carried out with an Auto-iTC200 instrument from Microcal Inc. at 25° C. […] of RBBp4 in 50 mM Tris and 100 mM NaCl at pH 7.4 was loaded into the ITC cell. Sal14 peptide at […] was auto-loaded into the syringe. The titration was carried out with 18 injections of 2.4 μl, performed over a period of 30 min with stirring at 1000 rpm. The ITC data was analysed using Origin software from Microcal.

T1 sequence (Q09028 whole entry): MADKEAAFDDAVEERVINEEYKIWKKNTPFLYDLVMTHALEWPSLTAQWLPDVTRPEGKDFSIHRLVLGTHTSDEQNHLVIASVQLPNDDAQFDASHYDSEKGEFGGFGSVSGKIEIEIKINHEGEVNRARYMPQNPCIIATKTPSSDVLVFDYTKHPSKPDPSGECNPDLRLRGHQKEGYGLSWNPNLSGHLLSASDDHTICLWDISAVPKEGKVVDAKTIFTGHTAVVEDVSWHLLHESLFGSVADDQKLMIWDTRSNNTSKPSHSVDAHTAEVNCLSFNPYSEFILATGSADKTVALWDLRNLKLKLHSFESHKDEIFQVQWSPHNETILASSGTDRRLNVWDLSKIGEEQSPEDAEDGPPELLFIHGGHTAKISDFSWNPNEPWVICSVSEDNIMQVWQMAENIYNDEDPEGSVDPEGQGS

Compound: Ac-MSARAQAKPQHI-NH2 (N-terminus and C-terminus assumed) [MUT]
effect on cell number [1]: does not
increase in PTEN expression compared to untreated cells [2]: no significant change

Compound: RQIKIWFQNRRMKWKKMSRRKQAKPQHI [PEN-WT]
EC50 [1]: 30000 nM
effect on tumor growth [3]: markedly impaired tumor growth
tumor weight [3]: 563.46 mg and 564 mg

Compound: RQIKIWFQNRRMKWKKMSARAQAKPQHI [PEN-MUT]
EC50 [1]: > 100000 nM
effect on tumor growth [3]: neither peptide was able to inhibit tumor growth
tumor weight [3]: 1273.46 mg

Compound: Ac-RRKQAKPAHI-NH2 [Peptide 14]
IC50 [4]: 120 ± 10 nM

Compound: Ac-RRRQAKPQHI-NH2 [Peptide 6]
IC50 [4]: 360 nM

Compound: CC1CC(OC(=O)C(O)c2ccccc2)CC(C)(C)N1C (centres unmarked) [Eucatropine]
peptide/compound remaining in the plasma ([5]; human plasma, 37° C., 1 μM, after 30 min): 40%
remaining at 0.5 h, 1 μM ([5]; human, pH 7.4): 40%

Compound: Ac-MSRRKQAKPQ-NH2 [Peptide 3]
IC50 [4]: 800 nM

Compound: Ac-RKQAKPQHI-NH2 [Peptide 7]
IC50 [4]: > 20000 nM

Compound: CNC(=O)c1cc(Oc2ccc(NC(=O)Nc3ccc(Cl)c(C(F)(F)F)c3)cc2)ccn1 [Sorafenib, reference compound]
tumor growth as compared to the control group [6]: 1.5 fold

Compound: Ac-RRKQAKAQHI-NH2 [Peptide 13]
IC50 [4]: 270 ± 30 nM

Compound: Ac-RAKQAKPQHI-NH2 [Peptide 9]
IC50 [4]: > 20000 nM

Compound: Ac-MSRRKQAKPQHI-NH2 [Peptide 1, reference compound]
effect on cell number [1]: exerts an inhibitory effect on cell number
IC50 [4]: 1040 ± 200 nM
log2 fd versus Contr (PEN + Mut), ADORA2A-AS1 [7]: 1.05
log2 fd versus Contr (PEN + Mut), AVPR2 [7]: 0.11
log2 fd versus Contr (PEN + Mut), CSAD [7]: 0.25
log2 fd versus Contr (PEN + Mut), DNASE1L2 [7]: 0.42
log2 fd versus Contr (PEN + Mut), LOC619207 [7]: 0.36
log2 fd versus Contr (PEN + Mut), NEIL1 [7]: 0.30
log2 fd versus Contr (PEN + Mut), PRKXP1 [7]: 0.62
log2 fd versus Contr (PEN + Mut), SSPO [7]: 0.99
increase in PTEN expression compared to untreated cells [2]: 3 fold
koff [8]: 0.026 ± 0.00045 s⁻¹
kon [8]: 16800 ± 460 M⁻¹ s⁻¹
Kd [9]: 1040 ± 60 nM

Compound: Ac-ARKQAKPQHI-NH2 [Peptide 8]
IC50 [4]: > 20000 nM

Compound: Ac-SRRKQAKPQHI-NH2 [Peptide 5]
IC50 [4]: 600 nM

Compound: RQIKIWFQNRRMKWKK [PEN]
effect on tumor growth [3]: neither peptide was able to inhibit tumor growth
tumor weight [3]: 1550.78 mg

Compound: Ac-RRAQAKPQHI-NH2 [Peptide 10]
IC50 [4]: > 20000 nM

Continued, in another order:

IC50 [4]: 270 ± 100 nM
Compound: Ac-RRKLAKPQHI-NH2 [Peptide 23]

IC50 [4]: 460 ± 100 nM
Compound: Ac-RRKQRKPQHI-NH2 [Peptide 26]

IC50 [4]: 23 nM
increase in affinity as compared with the original 12-residue WT peptide ([4]; ratio of FP IC50 values): > 56 fold
Compound: Ac-RRKFAKFQWI-NH2 [Peptide 46]
log2 fd versus Contr (PEN + Mut), ADORA2A-AS1 [7]: 2.17
log2 fd versus Contr (PEN + Mut), AVPR2 [7]: 1.53
log2 fd versus Contr (PEN + Mut), CSAD [7]: 1.09
log2 fd versus Contr (PEN + Mut), DNASE1L2 [7]: 1.11
log2 fd versus Contr (PEN + Mut), LOC619207 [7]: 1.33
log2 fd versus Contr (PEN + Mut), NEIL1 [7]: 1.11
log2 fd versus Contr (PEN + Mut), PRKXP1 [7]: 2.12
log2 fd versus Contr (PEN + Mut), SSPO [7]: 2.40

IC50 [4]: 120 nM
enhancement in binding affinity over that of peptide 6 ([4]; ratio of FP IC50 values): 3 fold
Compound: Ac-RRKQAKPQWI-NH2 [Peptide 41]

IC50 [4]: 3800 ± 500 nM
Compound: Ac-KRKQAKPQHI-NH2 [Peptide 17]

enhancement in binding affinity over that of peptide 6 ([4]; ratio of FP IC50 values): 7 fold
Compound: Ac-RRKFAKPQHI-NH2 [Peptide 24]

IC50 [4]: 460 ± 100 nM
Compound: Ac-RRKQAKPLHI-NH2 [Peptide 38]

IC50 [4]: 4400 ± 1100 nM
Compound: Ac-RRKQAKLQHI-NH2 [Peptide 33]

IC50 [4]: 170 nM
Compound: Ac-RRKQAKFQHI-NH2 [Peptide 34]

IC50 [4]: 460 ± 200 nM
Compound: Ac-RRKQAKPQHA-NH2 [Peptide 16]
